Laboratory results: patent publication US9326506B2, “Preparation method, agricultural composition and applications of natural brassinolide analogs” (CHENGDU NEWSUN CROPSCIENCE CO., LTD, priority 2012, dated 2016)

Tested on: soybean
Test: Farmland test on soybean (germination, height, fresh weight, dry weight)
Assay type: in vivo
Details: relative to the negative control (pure water)
Experimental: BR1, BR2, BR3, BR4, BR5 and BR6 were mixed into a mixture of brassinolide analogues (referred to as “BRs”, in which the weight ratio of BR1:BR2:BR3:BR4:BR5:BR6 is 0.4:0.4:0.4:0.4:0.4:98). pure water was used as a negative control, while chemically synthesized homobrassinolide (purchased from Yunda Technology Co., Ltd.) was used as a positive control. Respectively BRs and the positive control were diluted to the concentrations of 1 ppm, 0.5 ppm, 0.1 ppm, 0.05 ppm, 0.01 ppm, 0.005 ppm, 0.001 ppm, 0.0005 ppm and 0.0001 ppm. The subjects for the experimentation are soybean seeds in an experimental farmland. We sowed the soybean seeds on 9th July, surveyed the germination on 22nd July, 23rd July and 24th July, and measured the height on 5th September […].

CC[C@@H](C(C)C)[C@H](O)[C@@H](O)[C@@H](C)[C@H]1CC[C@H]2[C@@H]3COC(=O)[C@H]4C[C@H](O)[C@H](O)C[C@]4(C)[C@H]3CC[C@]12C [homobrassinolide]
Effects on germination, height, fresh weight and dry weight of soybean: positive and different effects
